For 21 compounds, T/C results are on record in PubChem BioAssay AID256 (DTP/NCI, 2004).

Molecules are shown by their SMILES. Several values for one entry are separate records, joined by “and”; a condition that tells them apart may be missing. Equal values may be shown once. Inconclusive results and toxic doses are left out.

The subject of this experiment is CD2F1 mice, L1210 leukemia ip, survival T/C. The experiment can be described thus: NCI In Vivo Anticancer Drug Screen. Data for tumor model L1210 Leukemia (intraperitoneal) in CD2F1 (CDF1) mice. Conditions: higher = longer survival. Put shortly:
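Read-out first: treated-group measurement over vehicle-control measurement, expressed as a ratio. Animals bore a transplanted tumor line and were dosed with compound or vehicle.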

Where [1] appears, read: endpoint: mean survival time, dose: 100.0 mg/kg/injection, schedule: Q01DX001 (ip), vehicle: saline.
The mark [2] stands for this setting: endpoint: mean survival time, dose: 100.0 mg/kg/injection, schedule: Q04DX003 (ip), vehicle: saline.
Where [3] appears, read: endpoint: mean survival time, dose: 200.0 mg/kg/injection, schedule: Q01DX001 (ip), vehicle: saline.
Setting [4] is: endpoint: mean survival time, dose: 200.0 mg/kg/injection, schedule: Q04DX003 (ip), vehicle: saline.
[5] abbreviates: endpoint: mean survival time, dose: 400.0 mg/kg/injection, schedule: Q01DX001 (ip), vehicle: saline.
Where [6] appears, read: endpoint: mean survival time, dose: 100.0 mg/kg/injection, schedule: Q01DX009 (ip), vehicle: saline with Tween-80.
[7] abbreviates: endpoint: mean survival time, dose: 200.0 mg/kg/injection, schedule: Q01DX009 (ip), vehicle: saline with Tween-80.
[8] abbreviates: endpoint: mean survival time, dose: 400.0 mg/kg/injection, schedule: Q01DX009 (ip), vehicle: saline with Tween-80.
Setting [9] is: endpoint: mean survival time, dose: 100.0 mg/kg/injection, schedule: Q01DX001 (ip), vehicle: saline with Tween-80.
Setting [10] is: endpoint: mean survival time, dose: 200.0 mg/kg/injection, schedule: Q01DX001 (ip), vehicle: saline with Tween-80.
[11] abbreviates: endpoint: mean survival time, dose: 100.0 mg/kg/injection, schedule: Q04DX002 (ip), vehicle: saline with Tween-80.
Setting [12] is: endpoint: mean survival time, dose: 200.0 mg/kg/injection, schedule: Q04DX002 (ip), vehicle: saline with Tween-80.
Where [13] appears, read: endpoint: mean survival time, dose: 400.0 mg/kg/injection, schedule: Q04DX002 (ip), vehicle: saline with Tween-80.
Setting [14] is: endpoint: mean survival time, dose: 25.0 mg/kg/injection, schedule: Q04DX003 (ip), vehicle: saline.
Setting [15] is: endpoint: mean survival time, dose: 50.0 mg/kg/injection, schedule: Q04DX003 (ip), vehicle: saline.
Where [16] appears, read: endpoint: mean survival time, dose: 100.0 mg/kg/injection, schedule: Q04DX003 (ip), vehicle: saline with Tween-80.
Setting [17] is: endpoint: mean survival time, dose: 200.0 mg/kg/injection, schedule: Q04DX003 (ip), vehicle: saline with Tween-80.
The mark [18] stands for this setting: endpoint: mean survival time, dose: 400.0 mg/kg/injection, schedule: Q04DX003 (ip), vehicle: saline with Tween-80.
The mark [19] stands for this setting: endpoint: mean survival time, dose: 25.0 mg/kg/injection, schedule: Q01DX009 (ip), vehicle: saline with Tween-80.
[20] abbreviates: endpoint: mean survival time, dose: 50.0 mg/kg/injection, schedule: Q01DX009 (ip), vehicle: saline with Tween-80.
The mark [21] stands for this setting: endpoint: mean survival time, dose: 100.0 mg/kg/injection, schedule: Q01DX009 (ip), vehicle: saline.

For the compound `c1cc[n+](C[n+]2ccccc2)cc1`, the T/C runs as follows: under setting [1], 101 % of control; under setting [2], 96 % of control; under setting [3], 101 % of control; under setting [4], 97 % of control; under setting [5], 101 % of control; (endpoint: mean survival time, dose: 400.0 mg/kg/injection, schedule: Q04DX003 (ip), vehicle: saline) 100 % of control.
Consider `O=C(CC(O)(C(F)(F)F)C(F)(F)F)c1ccccc1Cl`, for which the T/C under setting [6] is 100 % of control, the T/C under setting [7] was 115 % of control and the T/C under setting [8] is 107 % of control.
With `CCCCCCCCCCCCCCCC[N+]1(CCC)CCSCC1`, the T/C reads like this: under setting [9], 102 % of control; under setting [10], 110 % of control.
Take `CCN(CC)C(=S)SCCSC(=S)N(CC)CC`: the T/C by setting is: under setting [11], 92 % of control; under setting [12], 106 % of control; under setting [13], 89 % of control.
Consider `Cc1cccc[n+]1C`, for which the T/C is, setting by setting: (endpoint: mean survival time, dose: 12.5 mg/kg/injection, schedule: Q04DX003 (ip), vehicle: saline) 102 % of control; under setting [14], 104 % of control; under setting [15], 100 % of control.
Regarding `OC1C(I)CC(Cl)C2CCC[N-]C12.OC1C(I)CC(Cl)C2CCC[N-]C12.[Cu+2]` (stereo not given), the T/C by setting is: under setting [11], 96 % of control; under setting [12], 92 % of control; under setting [13], 88 % of control.
For `CC(C)c1ccccc1OS(=O)(=O)c1cccc([N+](=O)[O-])c1`, the T/C under setting [6] is 98 % of control; the T/C under setting [16] was 100 % of control; the T/C under setting [7] was 100 % of control; the T/C under setting [17] is 99 % of control; the T/C under setting [8] is 100 % of control; the T/C under setting [18] was 106 % of control.
Consider `CC(C)NC(=O)C1CC2c3cccc4[nH]cc(c34)CC2N(C)C1` (stereo not given), for which the T/C by setting is: under setting [19], 101 % of control; under setting [20], 98 % of control; (endpoint: mean survival time, dose: 50.0 mg/kg/injection, schedule: Q04DX003 (ip), vehicle: saline with Tween-80) 96 % of control; under setting [6], 102 % of control; under setting [16], 105 % of control.
With `CC(=O)Nc1nc2nccn2c(=O)[nH]1`, the T/C (endpoint: median survival time, dose: 50.0 mg/kg/injection, schedule: Q01DX005 (ip), vehicle: saline) was 101 % of control; the T/C (endpoint: median survival time, dose: 100.0 mg/kg/injection, schedule: Q01DX005 (ip), vehicle: saline) was 100 % of control; the T/C (endpoint: median survival time, dose: 200.0 mg/kg/injection, schedule: Q01DX005 (ip), vehicle: saline) is 101 % of control.
With `Cc1cc(C)c(CN)cc1C`, the T/C (endpoint: mean survival time, dose: 5.0 mg/kg/injection, schedule: Q01DX009 (ip), vehicle: saline with Tween-80) was 96 % of control; the T/C (endpoint: mean survival time, dose: 10.0 mg/kg/injection, schedule: Q01DX009 (ip), vehicle: saline with Tween-80) is 105 % of control; the T/C (endpoint: mean survival time, dose: 20.0 mg/kg/injection, schedule: Q01DX009 (ip), vehicle: saline with Tween-80) is 92 % of control.
With `Cc1cc(-c2ccc(N=Nc3c(N)ccc4cc(S(=O)(=O)O)ccc34)c(C)c2)ccc1N=Nc1c(N)ccc2cc(S(=O)(=O)O)ccc12`, the T/C is 101 % of control (endpoint: mean survival time, dose: 50.0 mg/kg/injection, schedule: Q01DX009 (ip), vehicle: saline) and 101 % of control under setting [21].
For the compound `O=P(NCCCO)(OCc1ccccc1)N(CCCl)CCCl` (stereo not given), the T/C (endpoint: mean survival time, dose: 15.63 mg/kg/injection, schedule: Q01DX001 (ip), vehicle: DMSO) is 101 % of control; the T/C (endpoint: mean survival time, dose: 31.25 mg/kg/injection, schedule: Q01DX001 (ip), vehicle: DMSO) is 98 % of control; the T/C (endpoint: mean survival time, dose: 62.5 mg/kg/injection, schedule: Q01DX001 (ip), vehicle: DMSO) is 101 % of control; the T/C (endpoint: mean survival time, dose: 125.0 mg/kg/injection, schedule: Q01DX001 (ip), vehicle: DMSO) is 104 % of control; the T/C (endpoint: mean survival time, dose: 250.0 mg/kg/injection, schedule: Q01DX001 (ip), vehicle: DMSO) was 116 % of control; the T/C (endpoint: mean survival time, dose: 1000.0 mg/kg/injection, schedule: Q01DX001 (ip), vehicle: DMSO) is 173 % of control. Further, the T/C (endpoint: mean survival time, dose: 1000.0 mg/kg/injection, schedule: Q01DX001 (ip), vehicle: other) was 178 % of control.
Turning to `Cc1c(Cl)c(Cl)c(Cl)c(I)c1Cl`, the T/C is, setting by setting: (endpoint: mean survival time, dose: 50.0 mg/kg/injection, schedule: Q04DX002 (ip), vehicle: saline with Tween-80) 96 % of control; under setting [9], 97 % of control; under setting [11], 93 % of control; under setting [10], 102 % of control; under setting [12], 93 % of control; (endpoint: mean survival time, dose: 400.0 mg/kg/injection, schedule: Q01DX001 (ip), vehicle: saline with Tween-80) 97 % of control.
In the case of `Cc1nc(C(N)=O)c(=O)[nH]c1C`, the T/C is, setting by setting: under setting [14], 102 % of control; under setting [15], 107 % of control; under setting [21], 111 % of control; under setting [2], 101 % of control; (endpoint: mean survival time, dose: 200.0 mg/kg/injection, schedule: Q01DX009 (ip), vehicle: saline) 100 % of control; (endpoint: mean survival time, dose: 400.0 mg/kg/injection, schedule: Q01DX009 (ip), vehicle: saline) 97 % of control.
`CCOC(=O)c1ccc(NC(=O)Nc2nncs2)cc1`: the T/C runs as follows: (endpoint: mean survival time, dose: 6.25 mg/kg/injection, schedule: Q01DX009 (ip), vehicle: distilled water + Tween-80) 101 % of control; (endpoint: mean survival time, dose: 12.5 mg/kg/injection, schedule: Q01DX009 (ip), vehicle: distilled water + Tween-80) 97 % of control and 103 % of control; (endpoint: mean survival time, dose: 25.0 mg/kg/injection, schedule: Q01DX009 (ip), vehicle: distilled water + Tween-80) 104 % of control and 107 % of control; (endpoint: mean survival time, dose: 50.0 mg/kg/injection, schedule: Q01DX009 (ip), vehicle: distilled water + Tween-80) 113 % of control and 115 % of control; (endpoint: mean survival time, dose: 100.0 mg/kg/injection, schedule: Q01DX009 (ip), vehicle: distilled water + Tween-80) 104 % of control and 112 % of control; (endpoint: mean survival time, dose: 200.0 mg/kg/injection, schedule: Q01DX009 (ip), vehicle: distilled water + Tween-80) 115 % of control.
On to `C1=C(CCc2c[nH]c3ccccc23)CCN(CCc2ccccc2)C1`, for which the T/C runs as follows: (endpoint: mean survival time, dose: 50.0 mg/kg/injection, schedule: Q01DX009 (ip), vehicle: Klucel (hydroxypropylcellulose) (HPC)) 103 % of control; (endpoint: mean survival time, dose: 100.0 mg/kg/injection, schedule: Q01DX009 (ip), vehicle: Klucel (hydroxypropylcellulose) (HPC)) 95 % of control; (endpoint: mean survival time, dose: 200.0 mg/kg/injection, schedule: Q01DX009 (ip), vehicle: Klucel (hydroxypropylcellulose) (HPC)) 122 % of control.
In the case of `C[N+](C)(C)/N=C/C=C/c1ccccc1`, the T/C runs as follows: (endpoint: mean survival time, dose: 12.5 mg/kg/injection, schedule: Q01DX009 (ip), vehicle: saline with Tween-80) 104 % of control; under setting [19], 104 % of control; under setting [20], 96 % of control and 107 % of control.
Turning to `Cc1cccc(NC(=O)c2cccc(Cl)c2)c1C`, the T/C is 91 % of control under setting [6]; 96 % of control under setting [16]; 96 % of control under setting [7]; 96 % of control under setting [17]; 91 % of control under setting [8]; 96 % of control under setting [18].
Turning to `Cc1ccc(Oc2ccc([N+](=O)[O-])cc2)cc1`, the T/C is 101 % of control under setting [15], 100 % of control under setting [2] and 94 % of control under setting [4].
With `CN=C(N)/N=C(\N)C(Cl)(Cl)Cl`, the T/C was 111 % of control under setting [1], 86 % of control under setting [3] and 90 % of control under setting [5].
For the compound `CCCCCCCOc1ccc(N=[N+]([O-])c2ccc(OCCCCCCC)cc2)cc1`, the T/C is 95 % of control under setting [16], 91 % of control under setting [17] and 89 % of control under setting [18].
